From patent US20080076772A1, “Anti-Inflammatory Agents” (Pharma Mar S.A. Sociedad Unipersonal, priority 2004, published 2008) come the findings set out here.

The subject of one test is CCL2. Nature of the test: CCL2 production induced by exposure of monocytes to tumor cell supernatants. The test is classed as cell-based, human. The settings on record: Homo sapiens, Monocyte; for inhibition at 0.0025 µM: 2.5 nM; for inhibition at 0.005 µM: 5 nM. How it is done: We also tested five other ecteinascidin compounds (Table 2) for their capacity to inhibit the production of CCL2 by human monocytes in vitro. […] The extent of inhibition of ET637 Derivative A was even more pronouced compared to ET743. In Table 2 is shown that the production of CCL2, induced by exposure of monocytes to tumor cell supernatants, is inhibited up to 80% and 97% at 2.5 and 5 nM, respectively, in two different donors. In the same experiment ET743 inhibited between 30% and 70%.

For test [1], the system named is IL-6. Nature of the test: IL-6 production by LPS-stimulated monocytes (ELISA). The test is classed as cell-based. The settings on record: Homo sapiens, Monocyte; 5 nM, n=2; read-out: overall inhibition of IL-6 production, monocytes. The procedure: (§1) Supernatants of untreated cells or cells treated with ecteinascidin 743 or other anti-neoplastic agents were collected after 24 h culture and frozen. Monocytes, macrophages and TAM were stimulated with 100 ng/ml LPS to induce maximal cytokine production. Determination of cytokines CCL2, TNF and IL-6 was measured by specific ELISA following the manufacturer's instructions.
(§2) Monocytes and in vitro differentiated macrophages were stimulated with LPS (100 ng/ml). After 1 h LPS stimulation they were treated with ecteinascidin 743. After 16 h incubation, cell supernatants were harvested and tested in ELISA. Under these treatment conditions cell viability was usually >85% for concentrations up to 5 nM. […] Mean inhibition at 5 nM, for monocytes, was 65% (range 50-80%, n=5) and was 50% (range 25-75%, n=5) for in vitro differentiated macrophages. Results are mean+/−SE of 3-5 experiments
(§3) We also tested two other cytokines, IL-6 and TNF, produced by macrophages and tumour cells, which have inflammatory properties and also act as growth factors for some tumours. IL-6 production was always reduced after ecteinascidin 743 treatment, with an overall inhibition at 5 nM of 54% (range 51-57%, n=2) and 69% (range 66-72%, n=2), in monocytes and macrophages, respectively (FIG. 6B). […]
(In general: ELISA stands for enzyme-linked immunosorbent assay.)

Test [2] relates to TNF. Nature of the test: TNF production by LPS-stimulated in vitro differentiated macrophages (ELISA). The test is classed as cell-based, human. The note with it: LPS 100 ng/ml, 16 h incubation. The procedure: (§4) Monocytes, macrophages and TAM were stimulated with 100 ng/ml LPS to induce maximal cytokine production. Determination of cytokines CCL2, TNF and IL-6 was measured by specific ELISA following the manufacturer's instructions.
(§5) To verify whether the inhibitory effect of ecteinascidin 743 on cytokine production was at the transcriptional level, we analyzed mRNA of CCL2 and TNF from LPS-stimulated macrophages by real time-PCR of CCL2 and TNF transcripts in LPS-stimulated monocytes exposed to ecteinascidin 743.

The test system of test [3] is IL-6. Nature of the test: IL-6 release in TAM (ELISA). The note with it: Homo sapiens, n=4. The test is classed as cell-based. The text has this:
Tumour-associated macrophages (TAM) and tumour cells were isolated from the ascitic fluid of patients with diagnosed ovarian adenocarcinoma, admitted to the Clinic of Obstetrics and Gynecology of the University of Milan-Bicocca, S Gerardo Hospital. Cells contained in the ascitic fluid were centrifuged and isolated by differential density gradients of Ficoll and Percoll, and plastic adherence as previously described (see Allavena, P., Peccatori, F., Maggioni, D., Erroi, A., Sironi, M., Colombo, N., Lissoni, A., Galazka, A., Meiers, W., Mangioni, C., et al. Intraperitoneal recombinant gamma-interferon in patients with recurrent ascitic ovarian carcinoma: modulation of cytotoxicity and cytokine production in tumour-associated effectors and of major histocompatibility antigen expression on tumour cells. Cancer Res, 50: 7318-7323, 1990). Purity of TAM and tumour cell preparations was usually>65±10% as defined by morphology and phenotype analysis. Cells were treated with ecteinascidin 743 at the indicated concentrations and cultured for 1-5 days, as specified in figure legends. […]
Supernatants of untreated cells or cells treated with ecteinascidin 743 or other anti-neoplastic agents were collected after 24 h culture and frozen. […] Determination of cytokines CCL2, TNF and IL-6 was measured by specific ELISA following the manufacturer's instructions. […]

In test [4] the test system is TNF. Nature of the test: TNF production by LPS-stimulated TAM (ELISA). The note with it: LPS 100 ng/ml, 16 h incubation, up to 10 nM. The test is classed as cell-based, human. The procedure:
as §4, §5

Another test has as its system CCL2 transcripts. As to the kind of experiment: Real time-PCR of CCL2 transcripts in LPS-stimulated monocytes. The test is classed as cell-based, human.
Description: as §5

For the next test, the system named is monocytes. As to the kind of experiment: Apoptosis of monocytes (Annexin V / PI staining). The settings on record: monocytes exposed to drug. The test is classed as cell-based, human. The procedure: (§6) Cells exposed to treatments were fixed with ethanol 70%, washed in PBS and stained with propidium iodide (PI) solution containing 10 ug/ml PI in PBS and 25 μl RNAse 10,000 units, overnight in the dark. PI incorporation was evaluated on at least 20,000 cells/sample using a FACS Calibur instrument (Becton Dickinson, Sunnyvale, Calif., USA), with a bandpass filter at 620 nm. Apoptosis was detected by staining with AnnexinV and PI. FACS analysis was performed using a bandpass filter 530 and 620 nm for green (AnnexinV) and red (PI) fluorescence respectively, in combination with a […] dichroic mirror.

Test [5] concerns IL-6. Nature of the test: IL-6 production by LPS-stimulated in vitro differentiated macrophages (ELISA). The test is classed as cell-based. The settings on record: Homo sapiens, Macrophage; 5 nM, n=2; read-out: overall inhibition of IL-6 production, macrophages. How it is done: as §1, §2, §3
For another test, the system named is T lymphocytes. As to the kind of experiment: Cell viability of purified T lymphocytes (PI staining, flow cytometry). The settings on record: 48 h. The test is classed as cell-based, human. How it is done:
(§7) Purified populations of human blood monocytes were prepared as previously described by differential density centrifugation on Ficoll and Percoll gradients (see Allavena, P., Piemonti, L., Longoni, D., Bernasconi, S., Stoppacciaro, A., Ruco, L., and Mantovani, A. IL-10 prevents the differentiation of monocytes to dendritic cells but promotes their maturation to macrophages. Eur J Immunol, 28: 359-369, 1998). […] Human thymocytes were isolated from resected thymus from pediatric patients undergoing surgery. Thymocytes were obtained by teasing and isolated on Percoll gradient.
(§8) Cell viability was analyzed by DNA content in Flow Cytometry
as §6
(§9) Purified preparations of blood monocytes, lymphocytes and thymocytes were cultured with different concentrations of ecteinascidin 743 for 48 h. […]
For orientation: A flow cytometer gives signals particle by particle.

For another test, the system named is thymocytes. As to the kind of experiment: Cell viability of freshly isolated thymocytes (PI staining, flow cytometry). The test is classed as cell-based. The settings on record: Homo sapiens, Thymocyte, 48 h. How it is done: as §7, §8, §6, §9
The mark [6] stands for this setting: read-out: % inhibition of CCL2 production, Donor A.
Setting [7] is: read-out: % inhibition of CCL2 production, Donor B.

Where two headings read alike, the source gives them in different places.

One may read the inhibition as how much of the control response was suppressed. Usually IC50 stands for the concentration that gives 50% inhibition. Take `COc1cc2c(cc1O)CCN[C@]21CS[C@@H]2c3c(OC(C)=O)c(C)c4c(c3[C@H](COC1=O)N1[C@@H]2[C@H]2c3c(cc(C)c(OC)c3O)C[C@@H]([C@@H]1O)N2C)OCO4` [ecteinascidin 743]: the inhibition at 0.0025 µM is 30% in the test on CCL2 (setting [6]) and 60% with CCL2 (setting [7]). The inhibition at 0.005 µM stood at 70% in the test with CCL2 (setting [6]); 70% with CCL2 (setting [7]); 54% in the test with IL-6 [1]; 35% in the test with IL-6 [3] (5 nM); 69% in the test with IL-6 [5]. In addition, the “production of TNF by macrophages” value in the test with TNF [2] is given as “never inhibited”. The compound further showed an inhibition at 0.01 µM with IL-6 [3] (10 nM) of 47%. For the same compound, the “production of TNF by TAM” value with TNF [4] is given as “never inhibited”. Further, in the test with CCL2 transcripts, the CCL2 transcripts entry was “consistent reduction”. In the test on monocytes, the “Annexin V staining of dying monocytes (apoptosis)” value is “stained positive for Annexin V”. For the same compound, in the test on T lymphocytes (5 nM), the “viability of T lymphocytes” value is given as “all alive”. Also, the 50% inhibitory concentration (IC50) in the test with T lymphocytes (Homo sapiens, T-lymphocyte) is 20 nM; in the test on thymocytes it was > 40 nM.
